For twelve compounds, IC50 results are on record in patent US20260226048A1, “MULTI-CYCLIC IRAK AND FLT3 INHIBITING COMPOUNDS AND USES THEREOF” (CHILDREN'S HOSPITAL MEDICAL CENTER, priority 2023, published 2026).

As usually defined, the IC50 is the point on the concentration scale where inhibition reaches its midpoint.

The target of one test is T1, IRAK4 (Homo sapiens, UniProt Q9NWZ3).
T1 sequence (Q9NWZ3 1-460): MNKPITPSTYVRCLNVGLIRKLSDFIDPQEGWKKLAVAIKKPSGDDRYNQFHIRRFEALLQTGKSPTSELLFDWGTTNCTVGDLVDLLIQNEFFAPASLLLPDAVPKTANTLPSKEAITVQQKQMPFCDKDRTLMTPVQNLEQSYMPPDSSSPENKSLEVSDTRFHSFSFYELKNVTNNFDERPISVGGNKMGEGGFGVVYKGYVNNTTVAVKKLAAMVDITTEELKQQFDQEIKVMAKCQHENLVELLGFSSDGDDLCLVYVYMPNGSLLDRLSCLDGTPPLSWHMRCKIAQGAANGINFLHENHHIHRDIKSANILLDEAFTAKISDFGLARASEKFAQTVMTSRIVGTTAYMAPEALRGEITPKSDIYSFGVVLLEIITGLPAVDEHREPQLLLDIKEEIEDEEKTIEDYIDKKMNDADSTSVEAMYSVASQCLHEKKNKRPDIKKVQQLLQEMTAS
Put plainly: RBC HotSpot Kinase Assay, IRAK4. The class given is biochemical. On the set-up: purchased Reaction Biology (RBC HotSpot). The note with it: isolated kinase enzyme, 33P-ATP, P81 filter-binding. From the text: (§1) This assay uses the isolated kinase enzyme. This assay is very useful for determining competition of the inhibitor for ATP and/or substrates and for measuring the kinetics of enzyme inhibition. […] Unlike kinase binding assays that measure competition for ATP, the HotSpot Kinase Assay is a functional assay that measures catalytic activity; as such it measures relative functional potency regardless of the mechanism of enzyme inhibition. This assay uses the form of the various enzymes that are easiest to express, which may not necessarily be the form of the enzyme that exist in the cell. (Sometimes the carboxy terminus has been truncated to aid in expression, or, if it is a receptor kinase, the enzyme itself is isolated from the other parts of the receptor that are involved in regulating kinase activity.)
(§2) The reagent used was as follows: Base Reaction buffer; 20 mM Hepes (pH 7.5), 10 mM MgCl2, 1 mM EGTA, 0.01% Brij35, 0.02 mg/ml BSA, 0.1 mM Na3VO4, 2 mM DTT, 1% DMSO. Required cofactors were added individually to each kinase reaction.
The reaction procedure was as follows: • 1) Substrates were prepared in freshly prepared Reaction Buffer. • 2) Any required cofactors were delivered to the substrate solution above. • 3) Kinase was delivered into the substrate solution and gently mixed. • 4) Compounds were delivered in 1000A DM into the kinase reaction mixture by Acoustic technology (Echo550; nanoliter range), followed by incubation for 20 min at room temp. • 5) 33P-ATP was delivered into the reaction mixture to initiate the reaction. • 6) The mixture was incubated for 2 hours at room temperature. • 7) Kinase activity was detected by P81 filter-binding method.

The next test addresses T2, FLT3 (Homo sapiens, UniProt P36888).
T2 sequence (P36888 27-993): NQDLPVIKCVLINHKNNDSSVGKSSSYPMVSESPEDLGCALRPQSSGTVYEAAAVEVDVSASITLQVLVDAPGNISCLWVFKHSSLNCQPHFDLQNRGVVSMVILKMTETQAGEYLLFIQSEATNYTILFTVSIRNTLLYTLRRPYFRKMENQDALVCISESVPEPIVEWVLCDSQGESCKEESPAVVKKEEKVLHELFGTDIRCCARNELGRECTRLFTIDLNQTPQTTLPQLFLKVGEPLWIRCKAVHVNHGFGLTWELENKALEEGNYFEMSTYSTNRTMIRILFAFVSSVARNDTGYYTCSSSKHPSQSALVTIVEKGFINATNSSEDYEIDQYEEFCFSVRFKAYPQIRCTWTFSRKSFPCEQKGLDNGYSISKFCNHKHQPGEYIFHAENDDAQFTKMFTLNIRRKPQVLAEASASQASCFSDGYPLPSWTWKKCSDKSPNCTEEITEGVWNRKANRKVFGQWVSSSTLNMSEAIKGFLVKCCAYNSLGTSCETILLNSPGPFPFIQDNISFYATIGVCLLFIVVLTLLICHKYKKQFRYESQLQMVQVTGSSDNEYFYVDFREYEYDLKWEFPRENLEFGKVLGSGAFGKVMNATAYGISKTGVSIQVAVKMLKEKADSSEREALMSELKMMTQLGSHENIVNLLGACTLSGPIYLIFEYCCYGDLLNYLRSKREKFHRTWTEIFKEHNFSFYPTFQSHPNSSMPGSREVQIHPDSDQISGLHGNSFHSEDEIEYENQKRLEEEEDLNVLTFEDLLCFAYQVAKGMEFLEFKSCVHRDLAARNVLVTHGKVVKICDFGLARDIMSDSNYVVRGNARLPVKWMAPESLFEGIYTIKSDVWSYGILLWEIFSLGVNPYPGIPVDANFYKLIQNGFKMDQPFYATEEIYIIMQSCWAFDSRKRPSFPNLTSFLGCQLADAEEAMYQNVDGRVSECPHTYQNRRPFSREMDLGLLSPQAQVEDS
Description: RBC HotSpot Kinase Assay, FLT3. The class given is biochemical. Particulars: isolated kinase enzyme, 33P-ATP, P81 filter-binding. Details: purchased Reaction Biology (RBC HotSpot).
Excerpt: as §1, with “enzyme.” for “enzyme. This assay is very useful for determining competition of the inhibitor for ATP and/or substrates and for measuring the kinetics of enzyme inhibition.”
as §2

The next test concerns MOLM14 D835Y cells. Description: MOLM14 D835Y cell viability assay (Cell Titer Glo). The class given is cell-based. The note with it: Homo sapiens, MOLM-14, 48 h, cell viability, Cell Titer Glo, 48 hours; read-out: MOLM14 D835Y IC50. Here is the method: (§3) Both cell lines have activated FLT3 receptors, each of which carry additional resistance mutations in the kinase domain (D835Y and F691L, respectively).
(§4) For viability/cytotoxicity assessments, cells were seeded into 1536-well white polystyrene tissue culture-treated Greiner plates using a Multidrop Combi dispenser (ThermoFisher), in final volume 5 μL of growth media per well, at a density of 1000 cells per well. […] Plates were incubated for 48 hours at standard incubator conditions covered by a stainless steel gasketed lid to prevent evaporation. 48 hours post compound addition, 3 μL of Cell Titer Glo (Promega) were added to each well and plates were incubated at room temperature for 15 minutes with the stainless-steel lid in place. Luminescence readings were taken using a Viewlux imager (PerkinElmer) with a 2 second exposure time per plate.

A further test concerns MOLM14 F691L cells. Put plainly: MOLM14 F691L cell viability assay (Cell Titer Glo). The class given is cell-based. Particulars: Homo sapiens, MOLM-14; cell viability, Cell Titer Glo, 48 hours; read-out: MOLM14 F691L IC50. The protocol: as §3, §4
The target in another test is T3, IRAK1 (Homo sapiens, UniProt P51617).
T3 construct: purchased Reaction Biology (RBC HotSpot)
Put plainly: RBC HotSpot Kinase Assay, IRAK1. The class given is biochemical. Particulars: isolated kinase enzyme, 33P-ATP, P81 filter-binding.
Excerpt: as §1, with “enzyme.” for “enzyme. This assay is very useful for determining competition of the inhibitor for ATP and/or substrates and for measuring the kinetics of enzyme inhibition.”
as §2

T3 sequence (P51617 whole entry): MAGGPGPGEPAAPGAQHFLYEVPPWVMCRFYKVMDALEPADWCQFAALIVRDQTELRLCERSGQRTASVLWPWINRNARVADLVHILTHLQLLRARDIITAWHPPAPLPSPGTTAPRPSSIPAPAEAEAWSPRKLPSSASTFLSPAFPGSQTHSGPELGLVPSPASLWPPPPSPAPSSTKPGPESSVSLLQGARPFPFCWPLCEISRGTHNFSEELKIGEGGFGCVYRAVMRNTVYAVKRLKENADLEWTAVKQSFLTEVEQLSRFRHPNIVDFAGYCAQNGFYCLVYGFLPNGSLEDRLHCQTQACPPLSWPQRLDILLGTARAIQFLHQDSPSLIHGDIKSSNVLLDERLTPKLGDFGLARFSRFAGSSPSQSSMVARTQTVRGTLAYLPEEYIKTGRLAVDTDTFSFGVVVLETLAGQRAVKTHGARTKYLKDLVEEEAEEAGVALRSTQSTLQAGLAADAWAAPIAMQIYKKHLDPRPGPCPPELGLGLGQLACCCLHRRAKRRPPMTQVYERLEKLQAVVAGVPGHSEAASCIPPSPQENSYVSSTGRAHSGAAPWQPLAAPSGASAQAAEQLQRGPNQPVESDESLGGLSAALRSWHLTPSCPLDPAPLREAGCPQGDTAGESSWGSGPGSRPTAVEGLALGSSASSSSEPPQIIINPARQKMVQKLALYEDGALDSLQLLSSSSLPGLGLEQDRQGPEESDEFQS

For the compound `FC(F)COc1cc2ncc(-c3cncc(N[C@H]4CNCC[C@@H]4F)n3)n2nc1C1CC1` [Compound 7a, 6-(6-cyclopropyl-7-(2,2-difluoroethoxy)imidazo[1,2-b]pyridazin-3-yl)-N-((3 S,4S)-4-fluoropiperidin-3-yl)pyrazin-2-amine], the IC50 on IRAK4 was 2 nM; at FLT3, < 0.5 nM; with MOLM14 D835Y cells, 10 nM; with MOLM14 F691L cells, 20 nM; on IRAK1 it was 73 nM.

In the case of `c1cc(-c2cnc3cc(OC4CC4)c(C4CC4)nn23)nc(N[C@@H]2CCCNC2)n1` [Compound 11a, (R)-4-(7-cyclopropoxy-6-cyclopropylimidazo[1,2-b]pyridazin-3-yl)-N-(piperidin-3-yl)pyrimidin-2-amine], the IC50 was 5 nM on IRAK4; < 0.5 nM at FLT3; 22 nM in the test with MOLM14 D835Y cells; 80 nM with MOLM14 F691L cells; 52 nM at IRAK1.

As for `F[C@H]1CNC[C@@H]1Nc1cncc(-c2cnc3cc(OC4CC4)c(C4CC4)nn23)n1` [Compound 14a, 6-(7-cyclopropoxy-6-cyclopropylimidazo[1,2-b]pyridazin-3-yl)-N-((3S,4S)-4-fluoropyrrolidin-3-yl)pyrazin-2-amine], the IC50 on IRAK4 is 16 nM; at FLT3, < 0.5 nM; in the test on MOLM14 D835Y cells it was 101 nM; in the test on MOLM14 F691L cells it was 318 nM; at IRAK1 it was 117 nM.

Consider `c1ncc(-c2cnc3cc(OC4CC4)c(C4CC4)nn23)nc1N[C@@H]1CCCNC1` [Compound 15a, (R)-6-(7-cyclopropoxy-6-cyclopropylimidazo[1,2-b]pyridazin-3-yl)-N-(piperidin-3-yl)pyrazin-2-amine], for which the IC50 at IRAK4 is 18 nM; at FLT3, < 0.5 nM; with MOLM14 D835Y cells, 45 nM; with MOLM14 F691L cells, 113 nM; on IRAK1, 258 nM.

On to `COc1cc2ncc(-c3nc(N[C@@H]4CCCNC4)ncc3F)n2nc1C(C)(C)O` [Compound 43a, (R)-2-(3-(5-fluoro-2-(piperidin-3-ylamino)pyrimidin-4-yl)-7-methoxyimidazo[1,2-b]pyridazin-6-yl)propan-2-ol], for which the IC50 at IRAK4 is 29 nM; on FLT3, 1 nM; with MOLM14 D835Y cells it was 23 nM; on IRAK1 it was 50 nM.

As for `COc1cc2ncc(-c3nc(N[C@H]4CNC[C@@H]4F)ncc3F)n2nc1C(C)(C)O` [Compound 44a, 2-(3-(5-fluoro-2-(((3S,4S)-4-fluoropyrrolidin-3-yl)amino)pyrimidin-4-yl)-7-methoxyimidazo[1,2-b]pyridazin-6-yl)propan-2-ol], the IC50 at IRAK4 was 4 nM; at FLT3 it was < 0.5 nM; in the test with MOLM14 D835Y cells, 51 nM; at IRAK1, 32 nM.

For the compound `CC(C)(O)c1ccc2ncc(-c3nc(N[C@H]4CNC[C@@H]4F)ncc3F)n2c1` [Compound 47a, 2-(3-(5-fluoro-2-(((3S,4S)-4-fluoropyrrolidin-3-yl)amino)pyrimidin-4-yl)imidazo[1,2-a]pyridin-6-yl)propan-2-ol], the IC50 on IRAK4 is 1 nM; at FLT3, < 0.5 nM; with MOLM14 D835Y cells it was 46 nM; on IRAK1, 13 nM.

For the compound `COc1cc2ncc(-c3nc(N[C@H]4CNC[C@@H]4F)ncc3F)n2nc1C1CC(F)(F)C1` [Compound 50a, 4-(6-(3,3-difluorocyclobutyl)-7-methoxyimidazo[1,2-b]pyridazin-3-yl)-5-fluoro-N-((3S,4S)-4-fluoropyrrolidin-3-yl)pyrimidin-2-amine], the IC50 was 0.8 nM on IRAK4, < 0.5 nM on FLT3, 29 nM in the test on MOLM14 D835Y cells and 3 nM on IRAK1.

As for `COc1cc2ncc(-c3cncc(N[C@H]4CNC[C@@H]4F)n3)n2nc1C1CC(F)(F)C1` [Compound 71a, 6-(6-(3,3-difluorocyclobutyl)-7-methoxyimidazo[1,2-b]pyridazin-3-yl)-N-((3S,4S)-4-fluoropyrrolidin-3-yl)pyrazin-2-amine], the IC50 at IRAK4 was 64 nM; at FLT3, 1 nM; in the test with MOLM14 D835Y cells, 576 nM; on IRAK1, 342 nM.

In the case of `COc1cc2ncc(-c3cncc(N[C@@H]4CCCNC4)n3)n2nc1C1CC(F)(F)C1` [Compound 72a, (R)-6-(6-(3,3-difluorocyclobutyl)-7-methoxyimidazo[1,2-b]pyridazin-3-yl)-N-(piperidin-3-yl)pyrazin-2-amine], the IC50 stood at 60 nM on IRAK4, 0.8 nM at FLT3, 289 nM in the test on MOLM14 D835Y cells and 127 nM on IRAK1.

Regarding `COc1cc2ncc(-c3cncc(N[C@H]4CNCC[C@@H]4F)n3)n2nc1C1CC(F)(F)C1` [Compound 73a, 6-(6-(3,3-difluorocyclobutyl)-7-methoxyimidazo[1,2-b]pyridazin-3-yl)-N-((3S,4S)-4-fluoropiperidin-3-yl)pyrazin-2-amine], the IC50 at IRAK4 is 12 nM; at FLT3, < 0.5 nM; in the test with MOLM14 D835Y cells, 204 nM; on IRAK1, 129 nM.

Take `COc1cc2ncc(-c3ccnc(N[C@@H]4CCCNC4)n3)n2nc1C1CCC1` [Compound 78a, (R)-4-(6-cyclobutyl-7-methoxyimidazo[1,2-b]pyridazin-3-yl)-N-(piperidin-3-yl)pyrimidin-2-amine]: the IC50 is 7 nM on IRAK4, < 0.5 nM at FLT3, 29 nM in the test with MOLM14 D835Y cells and 75 nM at IRAK1.
